Reference: PMC8092876, “A Leucyl-tRNA Synthetase Inhibitor with Broad-Spectrum Antimycobacterial Activity” (Antimicrobial Agents and Chemotherapy, 2021)
≈ marks a conversion by molar mass, not a printed value. Like-named read-outs stand apart in the source and are kept apart here.

Tests used:
M. avium 11 = assay: MIC assay in 96-well plate format; type: cell-based, M. avium subsp. hominissuis; conditions: Mycobacterium avium, 96 h; M. avium 11, 7H9, 4 days; read-out: MIC
[1] = system: M. abscessus subsp. abscessus M9; assay: MIC assay in 96-well plate format; type: cell-based; conditions: Mycobacteroides abscessus; M. abscessus subsp. abscessus M9, clinical isolate
[2] = system: M. abscessus subsp. abscessus M199; assay: MIC assay in 96-well plate format; type: cell-based; conditions: Mycobacteroides abscessus; M. abscessus subsp. abscessus M199, clinical isolate
[3] = system: M. abscessus subsp. massiliense M111; assay: MIC assay in 96-well plate format; type: cell-based; conditions: Mycobacteroides abscessus; M. abscessus subsp. massiliense M111, clinical isolate
[4] = system: M. abscessus subsp. abscessus K21; assay: MIC assay in 96-well plate format; type: cell-based; conditions: Mycobacteroides abscessus; M. abscessus subsp. abscessus K21, clinical isolate, infection model
[5] = system: M. abscessus Bamboo RM2 (LeuS K502E); assay: microbe, parasite or virus in culture; type: cell-based; conditions: Mycobacteroides abscessus
[6] = system: M. abscessus Bamboo RM4 (LeuS T327R); assay: microbe, parasite or virus in culture; type: cell-based; conditions: Mycobacteroides abscessus
[7] = Mouse pharmacokinetics, oral administration; type: in vivo; conditions: for AUC: female, C57BL/6, whole blood
Protocol: For pharmacokinetic studies, CD-1 male mice (22 to 25 g) were used for intravenous route and C57BL/6 female mice (18 to 20 g) were used for oral route. All animal studies were ethically reviewed and carried out in accordance with European Directive 2010/63/EU and the GSK policy on the care, welfare, and treatment of animals.
EC/11770 was administered by intravenous route at 1 mg/kg single dose in saline and by oral gavage at 1 mg/kg and 10 mg/kg single doses in 1% methyl cellulose (1% MC). Aliquots of 20 μl of blood were taken from the lateral tail vein by puncture from each mouse (n = 3 per route and dose) at 5, 15, and 30 min 1, 2, 4, 6, 8, and 24 h postdose for intravenous route and at 15, 30, and 45 min 1, 2, 4, 6, 8, and 24 h postdose for oral route. The blood aliquots were mixed with 40 μl of water and stored at −80°C prior to analysis. The samples were processed by protein precipitation: aliquots of 20 μl were mixed with acetonitrile/methanol (80:20 vol/vol) and then filtered in 0.45 μm well-plates (hydrophobic polytetrafluorethylene [PTFE], Millipore). The filtrates were analyzed by UPLC-MS/MS for the establishment of compound concentration. The ultraperformance liquid chromatography (UPLC)-MS/MS system included a UPLC Acquity (Waters) and an API4000 mass spec. (AB Sciex). A volume of 7.5 μl of sample was injected into the system, with an UPLC solvent gradient of 2 min and with a positive multiple reaction monitoring (MRM) mass detection mode.
Pharmacokinetic analysis was performed by noncompartmental data analysis (NCA) with Phoenix WinNonlin 6.3 (Pharsight, Certara L.P), and supplementary analysis was performed with GraphPad Prism 6 (GraphPad Software, Inc.).

[8] = system: M. abscessus subsp. abscessus K21; assay: M. abscessus mouse infection model; type: in vivo; conditions: NOD SCID mice, intranasal infection, 10 mg/kg orally once daily for 10 days, day 11
Protocol: In vivo efficacy determinations were carried out as described previously, using 8-week-old female NOD.CB17-Prkdc^scid/NCrCrl (NOD SCID) mice (Charles River Laboratories) and the M. abscessus subsp. abscessus K21 strain ([38]). Briefly, anesthetized animals were infected by intranasal delivery of ∼10^6 CFU of M. abscessus subsp. abscessus K21. Acute infection was achieved within 1 day. Drugs or the vehicle control were administered to NOD SCID mice once daily for 10 consecutive days by oral gavage, starting from 1 day postinfection. Clarithromycin was formulated in 0.4% methyl cellulose-sterile water and administered at a dose of 250 mg/kg. EC/11770 was formulated in 0.4% methyl cellulose-sterile water and administered at 10 mg/kg. All mice were euthanized 24 h after the last dose (11 days postinfection), and their lungs and spleen were aseptically removed prior to homogenization. The bacterial load in these organs was determined by plating serial dilutions of the organ homogenates onto Middlebrook 7H11 agar (BD Difco) supplemented with 0.2% (vol/vol) glycerol and 10% (vol/vol) oleic acid-albumin-dextrose-catalase (OADC). The agar plates were incubated for 5 days at 37°C prior to counting of colonies. […]

[9] = TB efficacy studies; stated as known, no reference given; cited from earlier work
M. abscessus Bamboo = assay: MIC and MBC determination in culture tubes (planktonic)
Protocol: M. abscessus Bamboo culture was grown to mid-log-phase (OD600 = 0.4 to 0.6) and diluted to OD600 = 0.1 (1 × 10^7 CFU/ml). Aliquots of 1.2 ml of the resulting bacteria suspension were transferred into 14 ml vented, round-bottom tubes (Thermo Fisher 150268, Rochester, NY, United States). A 10-point 2-fold dilution series of the compound was prepared, starting at 100 times the desired highest concentration. The compound concentration range tested was 100 to 0.195 μM. For each drug concentration tested, 12 μl of drug stock was added to two tubes and vortexed. Aliquots of 12 μl of DMSO were added to two tubes as the untreated controls (1% final DMSO concentration). From each tube, 200 μl was transferred to wells on a 96-well plate and the OD600 was measured using a Tecan Infinite M200 plate reader (day 0 reading). The tubes (1 ml final volume) were incubated on a tilted rack at 37°C on an orbital shaker at 220 rpm. On day 2, tubes were vortexed before transferring 200 μl onto a 96-well plate to measure the OD600 again (day 2 reading). To determine the MIC, day 0 and day 2 OD600 values were analyzed as previously described for MIC determination in 96-well plate format. To determine the MBC, CFU measurement was done for the OD600 = 0.1 bacteria suspension on day 0 and for each tube on day 2. Specifically, serial 10-fold dilutions were prepared in phosphate-buffered saline (Thermo Fisher 10010023) containing 0.025% Tween 80 (PBS/Tween 80) and plated on 7H10 agar. The MBC was defined as the lowest concentration of drug that reduced the CFU/ml value by 10-fold relative to the day 0 CFU/ml value.

[10] = mouse, oral 10 mg/kg, average (SD)

CC(C)(O)COc1ccc(Br)c2c1B(O)O[C@@H]2CN [EC/11770]
MIC (M. avium 11): 4 µM (≈ 1.32 µg/mL) | MIC [1]: 0.49 µM (≈ 0.162 µg/mL) | MIC [2]: 0.93 µM (≈ 0.307 µg/mL) | MIC [3]: 0.95 µM (≈ 0.313 µg/mL) | MIC [4]: 0.6 µM (≈ 0.198 µg/mL) | MIC [5]: > 100 µM | MIC [6]: > 100 µM | AUC ([7]; mouse, oral 1 mg/kg, average (SD), read-out: AUC0–24_1 mg/kg): 3560 ng·h/mL | AUC ([7]; mouse, oral 10 mg/kg, average (SD), read-out: AUC0–24_10 mg/kg): 40500 ng·h/mL | Cmax_1 mg/kg ([7]; mouse (C57BL/6 female), oral 1 mg/kg, average (SD)): 341 (51) ng/ml | %F_1 mg/kg ([7]; mouse, oral 1 mg/kg): 100% | DNAUC0–24_1 mg/kg ([7]; mouse, oral 1 mg/kg, average (SD)): 3,556 (179) ng h/ml per mg/kg | Tmax_1 mg/kg ([7]; mouse, oral 1 mg/kg, range of values): 1.0−2.0 h | %F_10 mg/kg ([7]; mouse, oral 10 mg/kg): 100% | time above M. abscessus biofilm MIC ([7]; mouse, oral 10 mg/kg): approximately 60% | time above MIC in M. abscessus planktonic cultures ([7]; mouse, oral 10 mg/kg): 100% | Cmax_10 mg/kg [7, 10]: 4,393 (1,260) ng/ml | DNAUC0–24_10 mg/kg [7, 10]: 4,053 (908) ng h/ml per mg/kg | Tmax_10 mg/kg ([7]; mouse, oral 10 mg/kg, range of values): 0.75−2.0 h | reduction in lung CFU [8]: 1.5 log | tolerated dose [9]: up to 100 mg/kg | MBC (M. abscessus Bamboo; Mycobacteroides abscessus): > 100 µM | MIC (M. abscessus Bamboo; Mycobacteroides abscessus, 48 h): 3 µM (≈ 0.99 µg/mL) | MIC (M. abscessus Bamboo; planktonic M. abscessus Bamboo in culture tubes, day 2): 3.0 µM (≈ 0.99 µg/mL) | MBC (M. abscessus Bamboo; planktonic M. abscessus Bamboo in culture tubes, day 2, 10-fold CFU/ml reduction vs day 0): >100 µM
